# Several values for one entry are separate records, joined by “and”; a condition that tells them apart may be missing. Equal entries are not always repeated. Entries after “also recorded” stand apart in the source; their conditions may differ.
# Experiments:
# Type in all cases: cell-based, Sprague-Dawley rats
# [1] = tested on: hippocampal CA3-CA1 pyramidal neurons; assay: Functional terminal density (N5AP): FM dye vesicle turnover under 5AP bursts; conditions: for N5AP after blockade of axonal transport: 0.5 mM
# Protocol: (§1) High-density primary cultures of hippocampal CA3-CA1 pyramidal neurons of neonatal Sprague-Dawley rats (<24 hr) were used in the current study, as described before (Slutsky et al., Neuron. 2004; 44(5):835-49). The neurons were cultured on 1 #coverslips (8 mm×8 mm) for 14-28 days in vitro (div) before use. [Mg^2+]o in culture medium was adjusted to different concentrations according to experimental designs. In each experiment, sister cultures from the same batch were always used for treatment and control conditions on the same day, and the experimental results were repeated using several different batches.
# Vesicle turnover in response to bursting action potentials (see below) is a measure of the functional status of a presynaptic terminal. FM dyes were used to visualize the vesicle turnover of presynaptic terminals. In the current study, 10 μM FM1-43 or 20 μM FM4-64 (Biotium) was loaded under different patterns of field stimulations, such as 5AP bursts (5 action potentials (Aps) at 100 Hz for each burst, 6 bursts (30 APs totally) with 10 s inter burst interval were given) and “maximal stimulation” (600 APs at 10 Hz). Releasable fluorescence in the AOI (ΔF) was obtained from the difference of loading (F1) and unloading (F2) images, i.e. ΔF=F1−F2 (see FIG. 1A). For FIG. 3C, the loading/unloading procedures were performed under 5AP bursts and 600AP stimulation at the same area of network successively. Subsequently, the ΔF5AP and ΔF600AP images were registered to colocalize the vesicle turnover for these two stimulating protocols for individual terminals.
# The functional terminal density (N5AP) at a dendritic branch was defined as the number of 5AP bursting stimulation induced FM(+) puncta (#FM5AP) per unit area of dendritic branch (A), N5AP=#FM5AP/A. […] immunofluorescence (IF) staining of MAP2 (as described below), which specifically presents in dendritic skeleton, was used to label dendritic area and A was calculated from MAP2(+) area. To limit the error of A introduced by the immunoreactivity of MAP2(+), the staining and imaging parameters were rigorously controlled in different batches of IF and the grey-scale histograms of MAP2(+) images were equalized before measuring A. Here, to ensure the equalized MAP2(+) marked area could reflect the real morphology of dendrites, the parameters of histogram equalization were set based on the comparison of MAP2(+) and DIC images. For most experiments, the average N5AP of an AOI was calculated from the total number of FM(+) puncta divided by total MAP2(+) area to reduce the sampling error. Then the mean N5AP of all AOIs (1-5 AOIs/coverslip) was used to represent the average N5AP in a coverslip; for each statistical data point, several coverslips were used and the mean±standard error of the mean (SEM) of all coverslips was represented (see figure legends). For FIGS. 3B and D, the FM(+) puncta density induced by 600AP stimulation was also calculated and presented in the same way as described above. Exceptionally, for FIG. 2B, each point represented the N5AP at a single segment of dendritic branch. In general, in an AOI (59 μm×59 μm, with varying dendritic density) 351-1598 presynaptic functional terminals could be detected by FM dyes for different experimental groups under 5AP bursting stimulation.
# [2] = tested on: hippocampal CA3-CA1 pyramidal neurons; assay: Intracellular Mg2+ measurement with Magnesium Green-AM (MgGrn); conditions: for [Mg2+]i after blockade of axonal transport: 0.5 mM
# Protocol: as §1
# The mature cultures were incubated in Tyrode's solution with 2 μM Magnesium Green™-AM (MgGrn, an intracellular Mg^2+ indicator, Invitrogen) for 30 min and washed out for 20 min; both at 37° C. Fluorescent images of several AOIs in each coverslip were taken on FV300 at RT. In the current study, the MgGrn fluorescence at basal condition (without eliciting any AP stimulus) (FIG. 1A) was measured to eliminate any effects caused by AP-induced intracellular Ca^2+ fluctuations. Since the intracellular Ca^2+ concentration ([Ca^2+]i) at basal condition was usually <100 nM, the contribution of Ca^2+ to MgGrn fluorescence was very small. Thus, the fluorescent intensity of MgGrn could be considered proportional to [Mg^2+]i. Since the measured MgGrn fluorescence was also dependent on the local volume of branches in network, a physical model was built to describe this phenomenon and the calculating formula that corrected the effect of varying local volumes was derived.
# In the experiments, given a randomly selected AOI of dendritic area (the image was obtained as described above), 50-100 branches were randomly selected from each AOI and the mean intensity of fluorescence (i.e. F(z)max) of each branch was measured. Meanwhile, the diameter of each branch (d) was measured from the DIC image, then the F(z)max/d was calculated to represent the [Mg^2+]i in the branch. The mean value of these 50-100 branches was calculated to represent the level of [Mg^2+]i in the AOI. […]
# [3] = tested on: hippocampal CA3-CA1 pyramidal neurons; assay: In vitro immunofluorescence quantification of presynaptic proteins in terminals
# Protocol: as §1
# The neurons were fixed in 1×PBS (pH 7.4) containing 1% Paraformaldehyde (E.M.S.), 0.01% Glutaraldehyde (Alfa Aesar) and 4% Sucrose (Amresco) for 1 hr RT. […]
# For FIG. 3B, the average density of immunoreactive puncta of a given AOI was calculated from the total puncta number divided by the total MAP2(+) area; the values from several AOIs were averaged to represent the average puncta density in a coverslip; for each data bar, the mean±SEM of these coverslips were presented. […] For FIGS. 5C and 5D, the mean fluorescence intensity per pixel in each cell body was measured (the somatic area of each cell body was measured from DIC image) and then the mean±SEM of all the cell bodies were presented. […]
# [4] = tested on: hippocampal CA3-CA1 pyramidal neurons; assay: Mitochondrial status assessment (JC-1 membrane potential, mitochondrial density)
# Protocol: The neurons were cultured on 1 #coverslips (8 mm×8 mm) for 14-28 days in vitro (div) before use. [Mg^2+]o in culture medium was adjusted to different concentrations according to experimental designs.
# For FIG. 7A, mitochondria were marked with 40 nM Mitoview633 (Biotium) for 15 min and then washed out in blank medium for 15 min, both at 37° C. For FIG. 6A, the membrane potential-sensitive fluorescent dye JC-1 (1 μM) (Invitrogen) was used. JC-1 was incubated for 15 min followed by a 15 min washout at 37° C. Fluorescent images were taken on FV300 confocal. Mitochondrial membrane potential (ΔΨ) of each mitochondrion was estimated by the ratio of fluorescence of aggregate versus monomer form of JC-1, i.e. Faggr/Fmono. JC-1 was excited by 488 nm laser and the emission spectra were collected at 510-575 nm and >575 nm at the same time separately. Then the ratio of fluorescence at >575 nm versus at 510-575 nm (Faggr/Fmono) was calculated for each individual mitochondrial punctum to represent the ΔΨ of that mitochondrion. To estimate the valid range of Faggr/Fmono, Faggr/Fmono of individual mitochondria was measured before and after administering 5 μM Carbonyl cyanide 4-(trifluoromethoxy)phenylhydrazone (FCCP) 5 min at the same AOI. […] Faggr/Fmono was calculated for each individual meaningful punctum and the mean value of population was calculated from all the puncta to represent the general ΔΨ in this AOI. 3-5 AOIs were measured for each coverslip and the mean of the AOIs were calculated to represent the average ΔΨ of the coverslip. For each bar or point in FIG. 6, several coverslips were used (described in legends). The density of mitochondria (Nmito) was also quantified by counting the number of JC-1-aggregate(+) fluorescent puncta (FIG. 6) or MitoView633(+) puncta (FIG. 7) per area of branches.
# [5] = tested on: hippocampal CA3-CA1 pyramidal neurons; assay: Probability of transmitter release (Pr) in individual boutons, FM dye; conditions: [Mg2+]o elevated from 0.8 to 1.2 mM for four hours; single action potential input
# Protocol: FIGS. 25Aa to 25B. Intracellular Mg^2+ is a negative regulator of Pr. (FIG. 25Aa-25Ac) Inverse relationship between Pr and intracellular Mg^2+ concentration ([Mg^2+]i) in individual boutons. For individual terminals, the higher the [Mg^2+]i, the lower the Pr. (FIG. 25Aa) [Mg^2+]i and Pr in individual boutons were determined by Magnesium Green (MgGrn) and FM4-64, respectively. (FIG. 25Ab) Pr was negatively associated with [Mg^2+]i in individual boutons in a synaptic network. (FIG. 25Ac) Pr was linearly correlated with 1/[Mg^2+]i. […] Extracellular Mg^2+ concentration ([Mg^2+]o) was elevated from 0.8 to 1.2 mM for four hours to increase [Mg^2+]i.
# FIGS. 26A and 26B. (FIG. 26A) Representative DIC and FM1-43 images comparing presynaptic responses to single (“1AP”: 30AP0.5 Hz) and bursting (“5AP”: 6 groups of 5 APs at 100 Hz, ISI 10 sec) stimulus at low (0.8 mM) and high (1.2 mM) [Mg^2+]o. (FIG. 26B) Quantitative analysis of images from FIG. 26A. ***p<0.001. For methods see Slutsky et al, 2004, and Example 1. 2AP and 3AP refer to 6 groups of 2 APs at 100 Hz or 3 APs at 100 Hz, respectively.
# [6] = elevating Mg2+ level for long term (>48 hr)
structure (smiles),measurement,setting,value
COc1cc2c(c(OC)c1OC)-c1ccc(OC)c(=O)cc1[C@@H](NC(C)=O)CC2 [Colchicine],N5AP after blockade of axonal transport,[1]; at the high [Mg2+]o condition,remarkable reduction
same,N5AP after blockade of axonal transport,[1]; while increasing [Mg2+]o,prevented the increase
same,[Mg2+]i after blockade of axonal transport,[2]; at the high [Mg2+]o condition,without change
same,[Mg2+]i after blockade of axonal transport,[2]; while increasing [Mg2+]o,did not prevent elevation
same,concentration of presynaptic proteins in terminals,"[3]; 0.5 mM, as a function of blocking time, low and high [Mg2+]o",decrease; also recorded: decreased linearly
"N#CC(C#N)=NNc1ccc(OC(F)(F)F)cc1 [FCCP, Carbonyl cyanide 4-(trifluoromethoxy)phenylhydrazone, reference compound]","mean Faggr/Fmono of all mitochondria (JC-1, ΔΨ)","[4]; 5 μM, 5 min, from 1.21±0.02 before",0.26±0.002
CN(C)CCCN1c2ccccc2CCc2ccccc21 [Imipramine],functional terminal density (N5AP),"[1]; 1 μM for 4 hr added to Ctrl ([Mg2+]o 0.8 mM), 5AP bursts",increased
same,persistence of N5AP enhancement,[1]; after 1 μM for 4 hr,~32 h
same,[Mg2+]i (MgGrn fluorescence),[2]; 1 μM for 4 hr,elevation
[Mg+2] [Mg^2+],terminals functional in response to 5AP bursts (of 600AP-releasable terminals),[1]; [Mg2+]o elevated from 0.8 to 1.2 mM for 4 hr,90.6±2.9% and ~90%
same,increase in mitochondrial membrane potential (ΔΨ),[4]; elevating Mg2+ for 4 hr,~39%
same,increase in general mitochondrial function (Nmito×ΔΨ),[4]; elevating Mg2+ level for 4 hr,~68% and 67.8±12.4%
same,increase in mitochondrial density (Nmito) in distal branches,[4]; elevating Mg2+ level for 4 hr,~20% and 19.4±2.9%
same,increase in general mitochondrial function (Nmito×ΔΨ),[4]; [6],56.2±6.5%
same,increase in mitochondrial density (Nmito) in distal branches,[4]; [6],19.6±2.1%
same,increase in expression of Ca2+ sensor (SYT1) and coupling proteins in terminals,[3]; high [Mg2+]o (1.2 4 hr) vs Ctrl 0.8,30-44%
same,probability of release (Pr),[5],reduced

# From patent US11278567B2, “Methods of modifying neuronal function by changing intracellular magnesium levels” (Neurocentria, Inc., priority 2016, dated 2022)
